Source: patent US20190038703A1, “METHODS OF TREATING ACUTE MYELOID LEUKEMIA WITH A FLT3 MUTATION” (Biokine Therapeutics Ltd., priority 2013, published 2019)
Where a SMILES comes first, the peptide text is derived from it. Bridges are numbered along the chain shown (N, C = ends). [ ]: non-standard residue; d: D form. The star is where a group is joined. 2Nal = N[C@@H](Cc1ccc2ccccc2c1)C(=O)O; Benzoyl(4-F) = O=C(c1ccc(F)cc1)*; Cit = NC(=O)NCCC[C@H](N)C(=O)O

Key:
[1] = test system: MV4-11 cells engrafted in NOD SCID gamma (NSG) mice; assay: AML model of NSG mice engrafted with MV4-11 cells; format: in vivo, mouse; settings: AC220 10 mg/Kg oral, daily for 7 days; for AML cells in the BM / percentage of alive AML blasts in the blood / level of AML cells in the spleen: BL-8040 400 ug/mouse SC; for AML cells in the BM: control 12.6%, FIGS. 11A-11B; for percentage of alive AML blasts in the blood: control 13.5%, FIG. 9; for level of AML cells in the spleen: control 21%, FIGS. 12A-12B
Method: In the in-vivo study an AML model of NOD SCID gamma (NSG) mice engrafted with MV4-11 cells was used. […] The survival and apoptosis of AML cells were examined in the blood, BM and spleen of engrafted mice.
Female mice at the age of 7-9 weeks day (−1) 26/1/14: mice were irradiated with 200 rad 24 hr before cells injection day 0-27/1/14: mice were IV injected with 10×10^6 of MV4-11 cells in total volume of 200 ul PBS.

human AML xenografts = settings: subcutaneous injections; Beider et al., Exp. Hematol. 2011; cited from earlier work
[2] = test system: human primary AML cells with wild-type FLT3; assay: Survival assay (PI staining, FACS), human primary AML cells with FLT3-WT; format: cell-based; settings: 48 hr; for decrease of the number of viable cells: human
Excerpt: (§1) Human primary AML cells with FLT3-ITD mutation and with FLT3-WT were obtained from AML patients after getting their consent in accordance with regulations of Chaim Sheba Medical Center (Tel-Aviv, Israel). Peripheral blood mononuclear cells (PBMCs) were separated from blood samples by density-gradient centrifugation on Ficoll-Paque (Pharmacia Biotech, Uppsala, Sweden). The cells were suspended in […] (FCS; Biological Industries, Kibbutz Beit Haemek, Israel), supplement with 10% DMSO then stored in liquid nitrogen. Prior to commencing a toxicity assay the isolated cells were thawed, re-suspended in Roswell Park Memorial Institute medium (RPMI 1640; Gibco BRL life technologies) supplemented with 20% FCS and incubated for 4 hr at 37° C. Isolated cells with FLT3-ITD mutation or with FLT3 wild type (FLT3-WT) were identified by using a procedure essentially as described by Levis and Small (Leukemia 17: 1738-1752, 2003). […] Following incubation the cells were stained with propidium iodide (PI; Sigma, St. Louis, Mo.; 1:1000) and the incidence of dead cells (% PI-positive) and the density of viable cells (PI-negative) were determined by FACScalibur using the procedure described by Beider and Begin (Exp Hematol 39: 282-92, 2011).

[3] = test system: human primary AML cells with FLT3-ITD; assay: Survival assay (PI staining, FACS), human primary AML cells with FLT3-ITD; format: cell-based; settings: 48 hr; for decrease of the number of viable cells: human
Excerpt: as §1

[4] = test system: malignant cells of hematopoietic origin including AML; settings: cited from earlier work
[5] = test system: human AML MV4-11 cells (FLT3-ITD); assay: Example 2 in-vitro viability and apoptosis by FACS; format: cell-based; settings: BL-8040 20 μM, 48 hrs
Method: Methods: The human AML MV4-11 cells (FLT3-ITD) was used. Cells were in-vitro incubated for 48 hrs in the presence of BL-8040 (20 μM), AC220 (50 nM) or their combination. The level of viable cells, percentage of apoptosis was evaluated by FACS.

Row | SMILES | reduction of total mouse WBC compared to the control ([1]; FIG. 10) | AML cells in the BM [1] | percentage of alive AML blasts in the blood [1] | level of AML cells in the spleen [1] | growth of human AML xenografts (human AML xenografts) | increase of the percentage of dead cells ([2]; BL-8040 8 μM, FIG. 2A) | increase of the percentage of dead cells ([2]; BL-8040 20 μM, FIG. 8A) | decrease of the number of viable cells ([2]; 8 μM) | decrease of the number of viable cells ([2]; 20 μM) | increase of the percentage of dead cells ([3]; BL-8040 8 μM, FIG. 1A) | increase of the percentage of dead cells ([3]; BL-8040 20 μM, FIG. 7A) | decrease of the number of viable cells ([3]; 8 μM) | decrease of the number of viable cells ([3]; 20 μM) | cytotoxicity toward malignant cells of hematopoietic origin [4] | inhibition of cell growth [5] | cell death ([5]; AC220 50 nM or their combination)
1 | CC(C)(C)c1cc(NC(=O)Nc2ccc(-c3cn4c(n3)sc3cc(OCCN5CCOCC5)ccc34)cc2)no1 [AC220, Quizartinib] | 65% | 0.05% | 0.1% | 0.09% |  |  |  |  |  |  |  |  |  |  |  | 
2 | N=C(N)NCCC[C@H](NC(=O)[C@@H]1CSSC[C@H](NC(=O)[C@H](Cc2ccc3ccccc3c2)NC(=O)[C@H](CCCNC(=N)N)NC(=O)[C@H](CCCNC(=N)N)NC(=O)c2ccc(F)cc2)C(=O)N[C@@H](Cc2ccc(O)cc2)C(=O)N[C@@H](CCCNC(N)=O)C(=O)N[C@@H](CCCCN)C(=O)N[C@H](CCCCN)C(=O)N2CCC[C@H]2C(=O)N[C@@H](Cc2ccc(O)cc2)C(=O)N[C@@H](CCCNC(=N)N)C(=O)N[C@@H](CCCNC(N)=O)C(=O)N1)C(N)=O [BL-8040, 4F-benzoyl-Arg-Arg-Nal-Cys-Tyr-Cit-Lys-DLys-Pro-Tyr-Arg-Cit-Cys-Arg-NH2] ({Benzoyl(4-F)}-RR[2Nal]CY[Cit]K[dK]PYR[Cit]CR-NH2; disulfide 4-13) |  | 2.6% | 1.7% | 0.4% | significantly reduced the growth | 13.7% | 56.3% | 16.1% | 34.4% | 79.3% | 116.6% | 28.8% | 50.0% | CXCR4-dependent preferential cytotoxicity | 35% | 40%
